# pEC50: −log10 of the molar value.
# Target: APJ receptor (Homo sapiens (Human), UniProt P35414)
# Test: [35S]GTPγS binding assay on membranes from CHO cells stably expressing human APJ receptor
# Assay type: biochemical
# Details: membranes of CHO cells stably expressing human APJ receptor, means of several independent experiments, read-out: Activity hAPJ SPA EC50 IP
# Experimental: The human APJ receptor was cloned by polymerase chain reaction and the gene encoding the receptor was subcloned in pFLAG-CMV™-3 expression vector (Sigma, Saint Louis, Mo. USA) in-house at Amgen. A GTPγS binding assay was performed on membranes prepared from CHO cells stably expressing human APJ receptor. The optimum experimental conditions for the concentrations of GDP, MgCl2, and NaCl in the assay buffer were initially determined. The assay was performed in assay buffer [20 mM HEPES, pH 7.5, 5 mM MgCl2, and 0.1% (w/v) BSA with 200 mM NaCl, 3 μM GDP] and membranes expressing human APJ receptor/well along with WGA PS beads. The reaction was initiated by addition of 0.2 nM [^35S]GTPγS (Perkin Elmer Life and Analytical Sciences, Waltham USA) in the absence or presence of various ligands and incubated at RT for 90 min. Nonspecific binding was determined in the presence of 100 μM GTPγS and was always less than 0.2% of total binding. All the results presented are means of several independent experiments and analyzed by non-linear regression methods using commercially available program Prism (GraphPad, San Diego, Calif.) to obtain EC50 detailed in Table 26.
# Chain of APJ receptor (P35414 whole entry): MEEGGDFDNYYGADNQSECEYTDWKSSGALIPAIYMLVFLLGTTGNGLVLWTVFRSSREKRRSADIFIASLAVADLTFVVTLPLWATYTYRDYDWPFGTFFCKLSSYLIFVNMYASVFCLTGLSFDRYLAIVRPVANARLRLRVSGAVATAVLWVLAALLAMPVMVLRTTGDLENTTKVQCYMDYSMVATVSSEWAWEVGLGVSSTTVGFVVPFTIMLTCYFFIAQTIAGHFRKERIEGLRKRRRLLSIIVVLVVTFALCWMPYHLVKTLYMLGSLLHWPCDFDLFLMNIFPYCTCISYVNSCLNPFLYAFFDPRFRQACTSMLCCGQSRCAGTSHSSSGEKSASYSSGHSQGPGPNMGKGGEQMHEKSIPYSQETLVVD
row,Compound,pEC50
1,"COc1cccc(OC)c1-n1c(NS(=O)(=O)CCc2ncc(Cl)cc2CCN2CCC2)nnc1-c1ccco1 [Example 235.0, 2-(3-(2-(1-Azetidinyl)ethyl)-5-chloro-2-pyridinyl)-N-(4-(2,6-dimethoxyphenyl)-5-(2-furanyl)-4H-1,2,4-triazol-3-yl)ethanesulfonamide]",9.25
2,"COc1cccc(OC)c1-n1c(NS(=O)(=O)[C@@H](C)[C@@H](OC)c2ncc(F)cn2)nnc1-c1ccc(C)o1 (single isomer, unassigned) [Example 132.0, (1S,2S)-N-(4-(2,6-dimethoxyphenyl)-5-(5-methylfuran-2-yl)-4H-1,2,4-triazol-3-yl)-1-(5-fluoropyrimidin-2-yl)-1-methoxypropane-2-sulfonamide or (1R,2R)-N-(4-(2,6-dimethoxyphenyl)-5-(5-methylfuran-2-yl)-4H-1,2,4-triazol-3-yl)-1-(5-fluoropyrimidin-2-yl)-1-methoxypropane-2-sulfonamide]",8.17
3,"COc1cccc(OC)c1-n1c(NS(=O)(=O)[C@@H](C)[C@@H](O)c2coc(C)n2)nnc1-c1ccc(C)o1 (racemic) [Example 300.0, (1R,2R)—N-(4-(2,6-Dimethoxyphenyl)-5-(5-methyl-2-furanyl)-4H-1,2,4-triazol-3-yl)-1-hydroxy-1-(2-methyl-1,3-oxazol-4-yl)-2-propanesulfonamide and (1S,2S)—N-(4-(2,6-dimethoxyphenyl)-5-(5-methyl-2-furanyl)-4H-1,2,4-triazol-3-yl)-1-hydroxy-1-(2-methyl-1,3-oxazol-4-yl)-2-propanesulfonamide]",7.92
4,"COc1cccc(OC)c1-n1c(NS(=O)(=O)CCc2ccc(F)cc2C#N)nnc1-c1ccc(C)o1 [Example 119.0, 2-(2-Cyano-4-fluorophenyl)-N-(4-(2,6-dimethoxyphenyl)-5-(5-methylfuran-2-yl)-4H-1,2,4-triazol-3-yl)ethanesulfonamide]",9.82
5,"COc1ccccc1-n1c(NS(=O)(=O)[C@@H](C)[C@H](C)c2ncc(F)cn2)nnc1-c1ccc(C)o1 [Example 172.0, (2S,3R)-3-(5-Fluoro-2-pyrimidinyl)-N-(4-(2-methoxyphenyl)-5-(5-methyl-2-furanyl)-4H-1,2,4-triazol-3-yl)-2-butanesulfonamide]",8.92
6,"C[C@@H](Cc1ncc(F)cn1)S(=O)(=O)Nc1nnc(-c2ccco2)n1-c1ccccc1C(F)(F)F [Example 318.0, (2S)-1-(5-Fluoro-2-pyrimidinyl)-N-(5-(2-furanyl)-4-(2-(trifluoromethyl)phenyl)-4H-1,2,4-triazol-3-yl)-2-propanesulfonamide and (2S)-1-(5-fluoro-2-pyrimidinyl)-N-(5-(2-furanyl)-4-(2-(trifluoromethyl)phenyl)-4H-1,2,4-triazol-3-yl)-2-propanesulfonamide]",6.38
7,"COc1cccc(OC)c1-n1c(NS(=O)(=O)[C@@H](C)CN2C(=O)CCC[C@]2(C)C#N)nnc1-c1ccco1 (single isomer, unassigned) [Example 341.0]",7.09
8,"COc1cccc(OC)c1-n1c(NS(=O)(=O)[C@H](C)[C@H](O)c2ccc(C#N)c(C)n2)nnc1-c1ccc(C)o1 (single isomer, unassigned) [Example 86.0]",9.64
9,"COc1cccc(OC)c1-n1c(NS(=O)(=O)[C@@H](C)[C@@H](O)c2ccc(C#N)cn2)nnc1-c1ccc(C)o1 (single isomer, unassigned) [Example 10.0, (1S,2S)-1-(5-cyano-2-pyridinyl)-N-(4-(2,6-dimethoxyphenyl)-5-(5-methyl-2-furanyl)-4H-1,2,4-triazol-3-yl)-1-hydroxy-2-propanesulfonamide or (1R,2R)-1-(5-cyano-2-pyridinyl)-N-(4-(2,6-dimethoxyphenyl)-5-(5-methyl-2-furanyl)-4H-1,2,4-triazol-3-yl)-1-hydroxy-2-propanesulfonamide]",9.96
10,"COc1cccc(OC)c1-n1c(NS(=O)(=O)[C@H](C)[C@H](OC)c2ncc(F)cn2)nnc1-c1ccc(C)o1 (single isomer, unassigned) [Example 122.0, (1R,2R)-N-(4-(2,6-dimethoxyphenyl)-5-(5-methylfuran-2-yl)-4H-1,2,4-triazol-3-yl)-1-(5-fluoropyrimidin-2-yl)-1-methoxypropane-2-sulfonamide or (1S,2S)-N-(4-(2,6-dimethoxyphenyl)-5-(5-methylfuran-2-yl)-4H-1,2,4-triazol-3-yl)-1-(5-fluoropyrimidin-2-yl)-1-methoxypropane-2-sulfonamide]",9.66
11,"COc1cccc(OC)c1-n1c(NS(=O)(=O)[C@@H](C)[C@H](OC)c2cn3ccccc3n2)nnc1-c1ccc(C)o1 (single isomer, unassigned) [Example 263.0, (1R,2S)—N-(4-(2,6-Dimethoxyphenyl)-5-(5-methyl-2-furanyl)-4H-1,2,4-triazol-3-yl)-1-imidazo[1,2-a]pyridin-2-yl-1-methoxy-2-propanesulfonamide or (1S,2R)—N-(4-(2,6-dimethoxyphenyl)-5-(5-methyl-2-furanyl)-4H-1,2,4-triazol-3-yl)-1-imidazo[1,2-a]pyridin-2-yl-1-methoxy-2-propanesulfonamide]",10.07

# Further lines, results first:
row,pEC50,Compound
1,8.85,"COc1cccc(OC)c1-n1c(NS(=O)(=O)[C@H](C)[C@@H](O)c2cn(C)cn2)nnc1-c1ccc(C)o1 (racemic) [Example 283.0, (1R,2S)—N-(4-(2,6-Dimethoxyphenyl)-5-(5-methyl-2-furanyl)-4H-1,2,4-triazol-3-yl)-1-hydroxy-1-(1-methyl-1H-imidazol-4-yl)-2-propanesulfonamide and (1S,2R)—N-(4-(2,6-dimethoxyphenyl)-5-(5-methyl-2-furanyl)-4H-1,2,4-triazol-3-yl)-1-hydroxy-1-(1-methyl-1H-imidazol-4-yl)-2-propanesulfonamide]"
2,7.89,"COc1cccc(OC)c1-n1c(NS(=O)(=O)[C@H](C)[C@@H](O)c2coc(C)n2)nnc1-c1ccc(C)o1 (single isomer, unassigned) [Example 303.0, (1R,2S)—N-(4-(2,6-Dimethoxyphenyl)-5-(5-methyl-2-furanyl)-4H-1,2,4-triazol-3-yl)-1-hydroxy-1-(2-methyl-1,3-oxazol-4-yl)-2-propanesulfonamide or (1S,2R)—N-(4-(2,6-dimethoxyphenyl)-5-(5-methyl-2-furanyl)-4H-1,2,4-triazol-3-yl)-1-hydroxy-1-(2-methyl-1,3-oxazol-4-yl)-2-propanesulfonamide]"
3,6.52,"COc1cccc(OC)c1-n1c(NS(=O)(=O)[C@H](C)Cc2ccncn2)nnc1-c1ccco1 (single isomer, unassigned) [Example 46.0, (2R)—N-(4-(2,6-dimethoxyphenyl)-5-(2-furanyl)-4H-1,2,4-triazol-3-yl)-1-(4-pyrimidinyl)-2-propanesulfonamide or (2S)—N-(4-(2,6-dimethoxyphenyl)-5-(2-furanyl)-4H-1,2,4-triazol-3-yl)-1-(4-pyrimidinyl)-2-propanesulfonamide]"
4,9.60,"COc1cccc(OC)c1-n1c(NS(=O)(=O)[C@@H](C)[C@@H](C)c2ncc(F)cn2)nnc1-c1ccco1 (racemic) [Example 218.0, (2R,3R)—N-(4-(2,6-dimethoxyphenyl)-5-(2-furanyl)-4H-1,2,4-triazol-3-yl)-3-(5-fluoro-2-pyrimidinyl)-2-butanesulfonamide and (2S,3S)—N-(4-(2,6-dimethoxyphenyl)-5-(2-furanyl)-4H-1,2,4-triazol-3-yl)-3-(5-fluoro-2-pyrimidinyl)-2-butanesulfonamide]"
5,10.14,"COc1cccc(OC)c1-n1c(NS(=O)(=O)[C@H](C)[C@@H](OC)c2ccc(C#N)cc2C#N)nnc1-c1ccc(C)o1 (single isomer, unassigned) [Example 143.0, (1S,2R)-1-(2,4-Dicyanophenyl)-N-(4-(2,6-dimethoxyphenyl)-5-(5-methyl-2-furanyl)-4H-1,2,4-triazol-3-yl)-1-methoxy-2-propanesulfonamide or (1R,2S)-1-(2,4-dicyanophenyl)-N-(4-(2,6-dimethoxyphenyl)-5-(5-methyl-2-furanyl)-4H-1,2,4-triazol-3-yl)-1-methoxy-2-propanesulfonamide]"
6,9.09,"(2R)-1-(3-cyano-5-fluoro-2-pyridinyl)-N-(4-(2,6-dimethoxyphenyl)-5-(2-furanyl)-4H-1,2,4-triazol-3-yl)-2-propanesulfonamide or (2S)-1-(3-cyano-5-fluoro-2-pyridinyl)-N-(4-(2,6-dimethoxyphenyl)-5-(2-furanyl)-4H-1,2,4-triazol-3-yl)-2-propanesulfonamide [Example 29.0]"
7,8.60,"COc1cccc(OC)c1-n1c(NS(=O)(=O)C[C@@](C)(O)c2ncc(F)cn2)nnc1-c1ccc(C)o1 (single isomer, unassigned) [Example 249.0]"
8,7.89,"COc1cccc(OC)c1-n1c(NS(=O)(=O)[C@@H](C)[C@H](O)c2cn(C)cn2)nnc1-c1ccc(C)o1.COc1cccc(OC)c1-n1c(NS(=O)(=O)[C@H](C)[C@@H](O)c2cn(C)cn2)nnc1-c1ccc(C)o1 (mixture of isomers) [Example 301.0, (1R,2S)—N-(4-(2,6-Dimethoxyphenyl)-5-(5-methyl-2-furanyl)-4H-1,2,4-triazol-3-yl)-1-hydroxy-1-(1-methyl-1H-imidazol-4-yl)-2-propanesulfonamide and (1S,2R)—N-(4-(2,6-dimethoxyphenyl)-5-(5-methyl-2-furanyl)-4H-1,2,4-triazol-3-yl)-1-hydroxy-1-(1-methyl-1H-imidazol-4-yl)-2-propanesulfonamide]"

# — patent publication US10736883B2, “Triazole furan compounds as agonists of the APJ receptor” (AMGEN INC., priority 2016, dated 2020)
